Laboratory results taken from US7259140B2, “Heparin-binding peptides and uses thereof” (Thomas Jefferson University, priority 2003, dated 2007).
Entries after “also recorded” stand apart in the source; their conditions may differ. Ends that are not written are not given here.

Key:
[1] = Affinity coelectrophoresis (ACE) of peptide binding to radiolabeled low Mr heparin; set-up: species or system pig
Source text: Preparation of Radiolabeled Heparin. Whole heparin from pig intestinal mucosa (Sigma) was tyramine end-labeled and radiolabeled with Na^125I (Amersham, Pharmacia Biotech, Inc., Piscataway, N.J.) to an average specific activity≅1.0×10^7 CPM/μg as described (San Antonio, J. D., et al., Biochemistry, 32:4746-4755, 1993). Radiolabeled heparin was fractionated on Sephadex G-100 (Bio-Rad Laboratories, Hercules, Calif.) and the final≅12% of material to elute was retained as the low Mr material of ≦6,000 (Jordan, R., D. Beeler, and R. Rosenberg, J. Biol. Chem., 254:2902-2913, 1979; Laurent, T. C., et al., Biochem. J., 175:691-701, 1978).
Analysis of Peptide-Heparin Interactions by Affinity Coelectrophoresis (ACE). ACE was used to study interactions between peptides and low molecular weight (low Mr) heparin (WO00/45831). In ACE, trace concentrations of radiolabeled heparin are electrophoresed through agarose lanes containing peptides at various concentrations. These analyses are used to determine the dissociation constants (Kd's). The electrophoretic patterns of radiolabeled heparin are then visualized using a phosphorimager, and the dissociation constant (Kd) corresponds to the protein concentration at which the heparin is half shifted from being fully mobile at very low protein concentrations to maximally retarded at saturating protein concentrations. The lower the Kd value, the higher the affinity.
Binding of radiolabeled heparin to peptides was studied by ACE as detailed elsewhere (San Antonio, J. D., et al., Biochemistry, 32:4746-4755, 1993). […] Briefly, peptides were dissolved in 1×ACE running buffer, 50 mM sodium 3-(N-morpholino)-2-hydroxypropanesulfonate (MOPSO, Sigma)/125 mM sodium acetate, pH 7.0, and serially diluted in running buffer at 2× concentrations. Peptides were then mixed 1:1 with 2% agarose/1% CHAPS, 3-[(3-cholamidopropyl)dimethylammonio]-1-propanesulfonate, (Boehringer Mannheim, Indianapolis, Ind.), and loaded into wells of a 1% agarose gel. Radiolabeled heparin was then loaded in a slot on the anode side of the gel, and electrophoresed through the peptide-containing wells, towards the cathode. Gels were dried and PG mobility was measured with a Phosphorimager (Molecular Dynamics, Sunnyvale, Calif.) by scanning each protein lane and determining the relative radioactivity content per 88-μm pixel through the length of the lane. Retardation coefficient (R) measurements, binding isotherm curve fittings, and apparent Kd value determinations were calculated as detailed previously (Lee, M. K., and A. D. Lander, Proc. Natl. Acad. Sci. USA, 88:2768-2772, 1991; San Antonio, J. D., et al, Biochemistry, 32:4746-4755, 1993).
Retardation coefficients (R) for the migration of low Mr 1^25I-tyramine-heparin through peptides were determined from ACE gel electrophoretograms, and are plotted against peptide concentration. Smooth curves represent non-linear least-squares fits to the equation R=R∞/{1+(Kd/[peptide])^n}.

[2] = Hemodynamic effects in rats without prior Lovenox; conditions: no Lovenox
Experimental: Rats were sedated, and catheters were inserted into the femoral vein and femoral artery. The femoral artery catheter was hooked up to the computerized monitoring system, and injections were made through the femoral vein. Peptides were injected into rats without prior injection of Lovenox. Two or more rats (300-350 grams) were treated with 2 mg protamine or peptide.
At the times indicated in the figures, the following actions were taken: administration of saline to insure that the animal and intubations were stable; administration of test peptide or protamine alone; then administration of protamine.

platelets = experiment: Platelet aggregation with aggregation-inducing agents; type: cell-based, human; conditions: 12 μg/ml; Lovenox 0.5 U/ml; collagen, ADP, ristocetin, epinephrine, SFFLRN, A23187
Experimental: Plasma from six volunteers was tested with various aggregation inducing agents, at several concentrations of each agent, and with six different peptides of the invention. The effect of heparin-binding peptides of the invention on platelet aggregation was determined using standard procedures as previously described. The six peptides which were synthesized and tested were: (ARKKAAKA)4 (SEQ ID NO:31), ARKKAAKA(A16)ARKKAAKA (SEQ ID NO:30), (ARKKAAKA)3ARKKCAKA (SEQ ID NO:33), (ARKKAAKA)3VLVLVLVL (SEQ ID NO:5), C(ARKKAAKA)4C (SEQ ID NO:34), and (AKKARA)6 (SEQ ID NO:32).
The aggregation-inducing agents tested were: collagen, adenosine diphosphate (ADP), ristocetin, epinephrine, the thrombin receptor peptide SFFLRN, and calcium ionophore A23187. Platelets were subjected to protamine, or to SEQ ID NOS:31, 33, 30, 5, 34, or 32 at 12 μg/ml, and Lovenox® at 0.5 U/ml. Platelet aggregation in response to agonists was monitored and percent aggregation was determined over a five minute interval.
The agonist was added after equilibration of the platelets for one minute.

[3] = test system: anti-Factor Xa Activity of the Low Molecular Weight Heparin Lovenox ®; experiment: Anti-Factor Xa assay (Stachrom Heparin kit): neutralization of Lovenox in citrate or plasma in vitro; type: biochemical, human; conditions: in both citrate and plasma
Experimental: (§1) The ability of peptides such as (ARKKAAKA)3VLVLVLVL (SEQ ID NO:5) to neutralize the anti-Factor Xa activity of UFH and LMWH in vitro was tested using the Stachrom Heparin kit (Diagnostica Stago), a standard hematology laboratory assay used to measure the anti-Factor Xa activity of heparin. The assay was performed using the low molecular weight heparin enoxaparin sodium (Lovenox®, Aventis Pharmaceuticals, Inc.), unfractionated heparin (UFH), or the non-heparin glycosaminoglycan danaparoid sodium (Orgaran®, Organon Inc., West Orange, N.J.) in 0.32% citrate or in plasma anticoagulated with 0.32% citrate. Enoxaparin is commonly used clinically as a low molecular weight heparin (LMWH). Danaparoid is commonly used clinically as a non-heparin glycosaminoglycan anticoagulant. Currently, the only FDA approved drug to target UFH is protamine, which is not effective in vivo against LMWH or a non-heparin glycosaminoglycan such as danaparoid. Buffer and ATIII are added to form the heparin/ATIII complex, peptide is added, then Factor Xa, reporter dye substrate for Factor Xa activity, and stop solution, and the dye concentration is read at 405 nm. The absorbance of the dye increases with increasing Factor Xa activity, and thus is inversely proportional to the heparin (anti-Factor Xa activity) concentration. Peptides were tested in plasma obtained from three volunteers (A, B, and C). Platelet function inhibitors PG12 and theophylline were added to the blood immediately upon collection.
Results. […] (ARKKAAKA)3VLVLVLVL (SEQ ID NO:5) and VLVL(ARKKAAKA)3ARKKCAKA (SEQ ID NO:38) were able to neutralize about 0.4 U/ml anti-Factor Xa activity of LMWH at a concentration of 12 μg/ml, which would be an effective dose for patients. (AKKARA)6 (SEQ ID […]), (ARKKAAKA)4 (SEQ ID NO:31) and (ARKKAAKA)3ARKKCAKA […] 0.3-0.35 U/ml. In contrast, 12 μg protamine only neutralized about 0.25 U/ml of LMWH under these conditions.

[4] = test system: anti-Factor Xa Activity of Unfractionated Heparin; experiment: Anti-Factor Xa assay: neutralization of unfractionated heparin in citrate or plasma in vitro; type: biochemical, human; conditions: in both citrate and plasma
Experimental: as §1, with “collection. […]” for “collection.”

[5] = Hemodynamic effects in rats after administration of the LMWH Lovenox; conditions: in the presence of LMWH Lovenox
Experimental: Next, experiments were performed in which the animals were treated with the peptides after the administration of the LMWH Lovenox®, as would happen in the clinical situation, because binding of peptides to LMWH would be expected to reduce the effects of the peptides on hemodynamic function.

[6] = test system: Lovenox ® Activity in Blood from Patients Treated with Lovenox ®; experiment: Neutralizing Lovenox activity in blood from patients treated with Lovenox (anti-Factor Xa assay); type: biochemical, human; conditions: Peptide 12 μg/ml
Experimental: Blood was obtained from volunteers who were being treated with Lovenox® for their medical conditions after obtaining signatures on informed consent forms as approved by the Institutional Review Board. The assays to test neutralization of Lovendx® were performed as described for Table 2. A dose response from 1-60 μg/ml was evaluated as in Table 2.
The dose response pattern for the effective peptides was similar to the dose response in control plasma to which Lovenox® had been added. Each data point represents the mean and standard deviation of triplicate analyses on the same sample of blood from each patient.

(ARKKAAKA)4VLVLVLVL (ARKKAAKAARKKAAKAARKKAAKAARKKAAKAVLVLVLVL; Fragment) [SEQ ID NO:1]
affinity for low molecular weight heparin [1]: high affinity

AKKARAAKKARAAKKARAAKKARAAKKARAAKKARA [(AKKARA)6]
reduction/drop of blood pressure ([2]; 2 mg per rat (300-350 grams)): about 30 mm Hg
time to nadir of blood pressure ([2]; 2 mg per rat): 2 min
effect on platelet aggregation (platelets): no significant inhibition or enhancement of aggregation

ARKKAAKA (Fragment) [monomer, control peptide, reference compound]
effect in the anti-Factor Xa assay for Lovenox [3]: no effect
effect in the anti-Factor Xa assay for UFH [4]: no effect
affinity for low molecular weight heparin [1]: negligible affinity

ARKKAAKAARKKAAKAARKKAAKAARKKCAKA [(ARKKAAKA)3ARKKCAKA, (ARKKAAKA)3(ARKKCAKA)]
effect on blood pressure and heart rate / toxicity [5]: no significant effect on blood pressure and heart rate; also recorded: All rats tested showed no response to peptide
effect on blood pressure ([2]; 2 mg per rat): did not cause a change in blood pressure
effect on platelet aggregation (platelets): no significant inhibition or enhancement of aggregation

VLVLARKKAAKAPARKKAAKAVLVL
Lovenox ® Neutralized ([6]; blood of Lovenox-treated Patient Number 1): 0.027 U/ml
Lovenox ® Neutralized ([6]; blood of Lovenox-treated Patient Number 2): 0.012 U/ml
Lovenox ® Neutralized ([6]; blood of Lovenox-treated Patient Number 3): 0.021 U/ml
Lovenox ® Neutralized ([6]; blood of Lovenox-treated Patient Number 4): 0.022 U/ml
Lovenox ® Neutralized ([6]; blood of Lovenox-treated Patient Number 5): 0 U/ml
Lovenox ® Neutralized ([6]; blood of Lovenox-treated Patient Number 8): 0.018 U/ml
Lovenox ® Neutralized ([6]; blood of Lovenox-treated Patient Number 9): 0.007 U/ml
Lovenox ® Neutralized ([6]; blood of Lovenox-treated Patient Number 10): 0.025 U/ml
Lovenox ® Neutralized ([6]; blood of Lovenox-treated Patient Number 11): 0.050 U/ml
Kd ([1]; pH 7.0, mean and standard deviation of four assays, read-out: Kd (nM), affinity for low molecular weight heparin): 5220 ± 1550 nM
